Measurements published in patent US20220127297A1, “Novel Antibacterial 3"-Derivatives Of 4,6-Disubstituted 2,5-Dideoxystreptamine Aminoglycoside Antibiotics” (AGILeBiotics B.V., priority 2018, published 2022).
In brackets after ≈: the same amount, converted by molar mass.

How the values were obtained:
E. coli (AAC(3)IV) = test: MIC 50, broth micro-dilution, E. coli expressing AAC(3)IV; format: cell-based, Escherichia coli; details: Escherichia coli, ATCC25922, ATCC25922 harboring plasmid encoding AAC(3)IV
Description: (§1) Plasmid transformation. Approximately 500 ng of the pET-9b(+) (Cat. No. 69432-3, Merck), pAT21-1 (provided by Prof. Dr. Patrice Courvalin, M.D., Pasteur Institute, France; prepared according to Trieu-Cuot et. al, Mol. Gen. Genet. 198(2), 348 (1985)), pBluescript::AAC(6′)-Ie/APH(2″)-Ia (provided by Prof. Dr. Sergei Vakulenko, M.D., University of Notre Dame, Ind., USA; prepared according to S. B. Vakulenko et. al., J. Biol. Chem. 287 (52), 43262 (2012)), pBlue_lpp_aacC3_rrnC and pSET152 (Cat. No. PVT3395, Life Science Market; prepared according to Bierman et al., Gene 116 (1), 43 (1992)) plasmids, encoding APH(3′)-Ia (SEQ ID NO:2), APH(3′)-IIIa (SEQ ID NO:3), AAC(6′)Ie-APH(2″)-Ia (SEQ ID NO:4), AAC(3)-III (SEQ ID NO:1), and AAC(3)-IV (SEQ ID NO:5) respectively, were individually incubated in a vial of competent cells for 15 min on ice. The cells were subsequently heated to 42° C. for 90 s, and cooled on ice for 1 min. After addition of 900 μL LB, the cells were incubated for 1 h at 37° C. and 200 rpm. Cells were plated on LB-agar supplemented with 50 μg/mL KanaA and incubated for 18 h at 37° C. The next day, a single colony was inoculated in 5 mL LB supplemented with 50 μg/mL and grown for 18 h at 37° C. and 200 rpm. A 200 μL sample of each culture was diluted with 200 μL of 40% v/v glycerol in water, and stored at −80° C. The plasmid was purified from the remaining culture using the Plasmid Miniprep kit. Plasmid DNA was investigated by Eurofins Genomics (Germany) to confirm the identity of the aminoglycoside resistance genes.
(§2) 3.1 Against E. coli Strains
(§3) Tested reference compounds. Amikacin sulfate (Cat. No. 01693, Chem-Impex), Gentamicin sulfate (Cat. No. G4918, Sigma Aldrich).
(§4) Microbial strains. E. coli ATCC 25922, E. coli ATCC 25922/pET-9b(+), E. coli ATCC 25922/pAT21-1, E. coli ATCC 25922/pBluescript::AAC(6′)-Ie/APH(2″)-Ia, E. coli ATCC 25922/pBlue_lpp_aacC3_rrnC, E. coli ATCC 25922/pSET152.
(§5) Culture media and equipment. BBL™ Mueller Hinton Broth 2 (Lot. BCBW1143, Cat. No. 70192, Sigma); Kanamycin A (Cat. No. A1493, AppliChem); 96-well deep well plate, 1 mL (Cat. No. 0030506.200, Eppendorf); Plate lids (Cat. No. 0030131.525, Eppendorf); 96-well plate, F-bottom (Cat. No. 781602, Brand; Incubator, Infors Multitron Pro); Laminar flow (Heraeus KS12); UV/VIS meter (Eppendorf BioPhotometer Plus); Platereader (Tecan Sunrise).
(§6) Compound preparation. Compounds were prepared in MH2 media at a concentration of 5 mM and stored at 4° C. For testing, solutions of 128 μM were prepared in MH2. Out of these working solutions, 400 μL was transferred to wells in the first column of 96-well deep well plates. Each compound was transferred in triplicate. Plates were previously filled with 200 μL of MH2 media in all wells except for the wells in the first column. After compound and antibiotic addition, the compounds were serial two-fold diluted by transferring 200 μL from the first to the second column, then from the second to the third column and so on. Finally, 200 μL was removed from the last column.
(§7) Inoculum preparation. Microorganisms used were all revived from 20% glycerol (40% v/v glycerol in water was diluted with MH2) storage at −80° C. by inoculating them in 5 mL MH2. inoculums of E. coli containing a plasmid were selected for by adding 50 μg/mL KanaA. The Inoculums were grown to an optical density (measured by UV/Vis spectroscopy) of 0.6-0.8 at 600 nm. Out of these suspensions, actual inoculums were prepared by diluting them to an optical density (OD) of 0.1 in MH2 media. From these inoculums, 200 μL was transferred to each well, resulting in a final compound concentration range of 64 μM-31.3 nM. All plates were incubated at 900 rpm and 70% rH for 18 h at 37° C.
(§8) MIC determination. After 18 h of growth, 200 μL was transferred to a 96-well F-bottom plate. The optical density was determined by a plate reader at 600 nm, with 10 s shaking before reading. Triplicate measurements were averaged, and a growth curve was plotted in Microsoft Excel. […]

E. coli (AAC(3)III) = test: MIC 50, broth micro-dilution, E. coli expressing AAC(3)III; format: cell-based, Escherichia coli; details: Escherichia coli, ATCC25922, ATCC25922 harboring plasmid encoding AAC(3)III
Text: Cloning resistant enzymes. An Escherichia coli codon optimized gene encoding AAC(3)-III (GenBank acc.nr. X55652.1; SEQ ID NO:1), including a promoter and terminator sequence, was synthesized by Integrated DNA Technologies, Belgium. The synthesized gene and pBluescript II KS(+) plasmid were digested using the restriction enzymes SacI and SalI, and purified from a 1% TBE-agarose gel using the illustra Gel Band purification kit. The purified linear plasmid and T4 DNA ligase were used to ligate aac(3)-III under control of the constitutive lipoprotein Ipp promoter and ribosomal RNA rrnC terminator, resulting in pBlue_Ipp_aacC3_rrnC.
as §1, §2, §3, §4, §5, §6
Inoculum preparation. Microorganisms used were all revived from 20% glycerol (40% v/v glycerol in water was diluted with MH2) storage at −80° C. by inoculating them in 5 mL MH2. inoculums of E. coli containing a plasmid were selected for by adding 50 μg/mL KanaA.

[1] = test system: E. coli (AAC(6′)Ie-APH(2″)Ia); test: MIC 50, broth micro-dilution, E. coli expressing AAC(6′)Ie-APH(2″)Ia; format: cell-based, Escherichia coli; details: Escherichia coli, ATCC25922, ATCC25922 harboring plasmid encoding AAC(6′)Ie-APH(2″)Ia
Description: as §1, §2, §3, §4, §5, §6, §7, §8

E. coli (APH(3′)IIIa) = test: MIC 50, broth micro-dilution, E. coli expressing APH(3′)IIIa; format: cell-based, Escherichia coli; details: Escherichia coli, ATCC25922, ATCC25922 harboring plasmid encoding APH(3′)IIIa
Description: as §1, §2, §3, §4, §5, §6, §7, §8

E. coli (APH(3′)Ia) = test: MIC 50, broth micro-dilution, E. coli expressing APH(3′)Ia; format: cell-based, Escherichia coli; details: Escherichia coli, ATCC25922, ATCC25922 harboring plasmid encoding APH(3′)Ia
Description: as §1, §2, §3, §4, §5, §6, §7, §8

E. coli ATCC25922 strain = test: MIC 50, broth micro-dilution, wild-type Escherichia coli; format: cell-based; details: Escherichia coli, ATCC25922, 18 h, MH2, 18 h
Text: as §2, §3, §4, §5, §6, §7
MIC determination. After 18 h of growth, 200 μL was transferred to a 96-well F-bottom plate. The optical density was determined by a plate reader at 600 nm, with 10 s shaking before reading. Triplicate measurements were averaged, and a growth curve was plotted in Microsoft Excel. The first column in which the growth reached half the value of maximum growth was determined as the MIC50 value for that particular compound.
MIC50. The MIC50 of a compound was assigned at which the bacterial growth reached half the value of maximum growth.

## N=C(NC[C@H]1CCCNC1)NC1[C@@H](O)C(OC2[C@@H](F)[C@H](O[C@H]3OC(CN)[C@@H](O)CC3N)C(N)C[C@H]2NC(=O)[C@@H](O)CCN)O[C@H](CO)[C@H]1O (stereo partly drawn) [ABX5044, Tobra-AHB-F-Gua (S) piperidin-3-yl methyl]
E. coli (AAC(3)IV)
  MIC50: 2 µM (≈ 1.42 µg/mL)
E. coli (AAC(3)III)
  MIC50: 0.5 µM (≈ 0.355 µg/mL)
[1]
  MIC50: 0.5 µM (≈ 0.355 µg/mL)
E. coli (APH(3′)IIIa)
  MIC50: 0.5 µM (≈ 0.355 µg/mL)
E. coli (APH(3′)Ia)
  MIC50: 0.5 to 1 µM (≈ 0.355 to 0.71 µg/mL)
E. coli ATCC25922 strain
  MIC50: 0.5 µM (≈ 0.355 µg/mL)
